We go through 19 compounds from patent US20050176733A1, “Chk-1 inhibitors” (Millennium Pharmaceuticals, Inc., priority 2004, published 2005).

This test addresses T1, Recombinant human Chk-1 (GST-Chk-1) (Homo sapiens, UniProt O14757).
T1 construct: made in house; host or cells: insect cells (baculovirus, Bac-to-Bac expression system)
T1 sequence (O14757 1-476): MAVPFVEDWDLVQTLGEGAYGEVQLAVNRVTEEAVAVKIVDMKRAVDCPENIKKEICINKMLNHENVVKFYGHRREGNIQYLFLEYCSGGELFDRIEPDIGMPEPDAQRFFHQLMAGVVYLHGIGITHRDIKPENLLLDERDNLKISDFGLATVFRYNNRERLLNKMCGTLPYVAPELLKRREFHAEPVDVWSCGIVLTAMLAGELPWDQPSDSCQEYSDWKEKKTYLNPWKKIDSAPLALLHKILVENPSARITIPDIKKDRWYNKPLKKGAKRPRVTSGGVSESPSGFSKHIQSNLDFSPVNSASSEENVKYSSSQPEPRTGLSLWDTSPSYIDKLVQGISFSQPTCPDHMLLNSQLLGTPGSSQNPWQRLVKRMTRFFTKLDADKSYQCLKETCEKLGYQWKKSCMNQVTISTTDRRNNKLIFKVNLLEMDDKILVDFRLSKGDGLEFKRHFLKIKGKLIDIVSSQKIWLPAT
Nature of the test: Chk-1 FlashPlate Kinase Assay. It is filed as biochemical. The note with it: for inhibition at 1 µM: at a concentration of 1.0 μM; for inhibition at 10 µM: at a concentration of 10 μM, read-out: inhibition of Chk-1 (Chk-1 induced 33P incorporation). As to the method: Recombinant human Chk-1 was expressed as a fusion protein with glutathione S-transferase at the amino-terminus (GST-Chk-1) using standard baculovirus vectors and (Bac-to-Bac®) insect cell expression system purchased from GIBCO™ Invitrogen.
Recombinant protein expressed in insect cells was purified using glutathione sepharose (Amersham Biotech) using standard procedures described by the manufacturer.
Assays (25 μL) contained 8.7 nM GST-Chk-1, 10 mM MES, 0.1 mM ethylene glycol-bis(β-aminoethylether)-N,N,N′,N′-tetraacetic acid (EGTA, pH 8.0), 2 mM DTT, 0.05% Tween 20, 3 μM peptide substrate (Biotin-ILSRRPSYRKILND-free acid) (SEQ ID NO: 1), 1 μM ATP, 0.4 μCi ^33P-γ-ATP (NEN), 4% DMSO. Reactions were incubated for 30 minutes at room temperature, terminated with 50 μL of 50 mM EDTA and […] were transferred to streptavidin-coated FlashPlates® (NEN) and incubated for 1 hour at room temperature. Plates were washed with phosphate buffered saline containing 0.01% Tween-20 and 10 mM sodium pyrophosphate. Plates were dried, sealed with Topseal™ (NEN) and amount of ^33P incorporated into the peptide substrate measure using a Packard Topcount® NXT™ scintillation counter with standard settings.

With `NC(=O)c1ccc(NC(=O)Nc2cc(Cl)ccc2OCCCNC(=O)[C@@H](N)Cc2ccc(Cl)cc2)nc1` [Compound I-2, 6-[3-(2-{3-[2-Amino-3-(4-chloro-phenyl)-propionylamino]-propoxy}-5-chloro-phenyl)-ureido]-nicotinamide], the inhibition at 1 µM is not below 50% and the inhibition at 10 µM was not below 50%.

Regarding `Cc1cnc(NC(=O)Nc2cc(Cl)ccc2OCCCNC(=O)CN(C)C)cn1` [Compound I-4, N-(3-{4-Chloro-2-[3-(5-methyl-pyrazin-2-yl)-ureido]-phenoxy}-propyl)-2-dimethylamino-acetamide], the inhibition at 1 µM was not below 50% and the inhibition at 10 µM was not below 50%.

As for `Cc1cnc(NC(=O)Nc2cc(Cl)ccc2OCCCNC(=O)N2CCOCC2)cn1` [Compound I-5, Morpholine-4-carboxylic acid (3-{4-chloro-2-[3-(5-methyl-pyrazin-2-yl)-ureido]-phenoxy}-propyl)-amide], the inhibition at 1 µM was not below 50% and the inhibition at 10 µM was not below 50%.

Consider `Cc1cnc(NC(=O)Nc2cc(Cl)ccc2OCCCNC(=O)CN2CCOCC2)cn1` [Compound I-6, N-(3-{4-Chloro-2-[3-(5-methyl-pyrazin-2-yl)-ureido]-phenoxy}-propyl)-2-morpholin-4-yl-acetamide], for which the inhibition at 1 µM is not below 50% and the inhibition at 10 µM is not below 50%.

As to `Cc1cnc(NC(=O)Nc2cc(Cl)ccc2OCCCNC(=O)CN2CCN(C)CC2)cn1` [Compound I-7, N-(3-{4-Chloro-2-[3-(5-methyl-pyrazin-2-yl)-ureido]-phenoxy}-propyl)-2-(4-methyl-piperazin-1-yl)-acetamide], the inhibition at 1 µM is not below 50% and the inhibition at 10 µM is not below 50%.

On to `Cc1cnc(NC(=O)Nc2cc(Cl)ccc2OCC(=O)N2CCOCC2)cn1` [Compound I-8, 1-[5-Chloro-2-(2-morpholin-4-yl-2-oxo-ethoxy)-phenyl]-3-(5-methyl-pyrazin-2-yl)-urea], for which the inhibition at 1 µM is not below 50% and the inhibition at 10 µM was not below 50%.

`Cc1cnc(NC(=O)Nc2cc(C(=O)NCCN(C)C)ccc2OCCCNC(=O)c2ccc(Cl)cc2)cn1` [Compound I-9, 4-[3-(4-Chloro-benzoylamino)-propoxy]-N-(2-dimethylamino-ethyl)-3-[3-(5-methyl-pyrazin-2-yl)-ureido]-benzamide]: the inhibition at 1 µM is not below 50% and the inhibition at 10 µM was not below 50%.

With `Cc1cnc(NC(=O)Nc2ccc(N3CCCC3)cc2OCCCNC(=O)c2ccc(Cl)cc2)cn1` [Compound I-10, 4-Chloro-N-(3-{2-[3-(5-methyl-pyrazin-2-yl)-ureido]-5-pyrrolidin-1-yl-phenoxy}-propyl)-benzamide], the inhibition at 10 µM is not below 50%.

Regarding `Cc1cnc(NC(=O)Nc2ccc(N3CCCC3)cc2OCCCNC(=O)CN(C)C)cn1` [Compound I-11, 2-Dimethylamino-N-(3-{2-[3-(5-methyl-pyrazin-2-yl)-ureido]-5-pyrrolidin-1-yl-phenoxy}-propyl)-acetamide], the inhibition at 1 µM was not below 50% and the inhibition at 10 µM is not below 50%.

For `N#Cc1ccc(NC(=O)Nc2cc(Cl)ccc2OCCCNC(=O)N2CCOCC2)nc1` [Compound I-12, Morpholine-4-carboxylic acid (3-{4-chloro-2-[3-(5-cyano-pyridin-2-yl)-ureido]-phenoxy}-propyl)-amide], the inhibition at 1 µM is not below 50% and the inhibition at 10 µM was not below 50%.

Consider `Cc1cnc(NC(=O)Nc2ccc(N3CCN(C)CC3)cc2OCCCNC(=O)c2ccc(Cl)cc2)cn1` [Compound I-13, 4-Chloro-N-(3-{5-(4-methyl-piperazin-1-yl)-2-[3-(5-methyl-pyrazin-2-yl)-ureido]-phenoxy}-propyl)-benzamide], for which the inhibition at 1 µM is not below 50% and the inhibition at 10 µM was not below 50%.

With `CN1CCN(C(=O)CCCOc2ccc(Cl)cc2NC(=O)Nc2ccc(C#N)cn2)CC1` [Compound I-14, 1-{5-Chloro-2-[4-(4-methyl-piperazin-1-yl)-4-oxo-butoxy]-phenyl}-3-(5-cyano-pyridin-2-yl)-urea], the inhibition at 1 µM was not below 50% and the inhibition at 10 µM was not below 50%.

With `Cc1cnc(NC(=O)Nc2cc(Cl)ccc2OCCCNC(=O)c2ccc(N(C)C)cc2)cn1` [Compound I-15, N-(3-{4-Chloro-2-[3-(5-methyl-pyrazin-2-yl)-ureido]-phenoxy}-propyl)-4-dimethylamino-benzaminde], the inhibition at 1 µM was not below 50% and the inhibition at 10 µM is not below 50%.

Turning to `Cc1cnc(NC(=O)Nc2cc(Cl)ccc2OCCCNC(=O)[C@@H](N)Cc2ccc(Cl)cc2)cn1` [Compound I-16, 2-Amino-N-(3-{4-chloro-2-[3-(5-methyl-pyrazin-2-yl)-ureido]-phenoxy}-propyl)-3-(4-chloro-phenyl)-propionamide], the inhibition at 1 µM was not below 50% and the inhibition at 10 µM is not below 50%.

Regarding `CN1CCN(C(=O)NCCCOc2ccc(Cl)cc2NC(=O)Nc2ccc(C#N)cn2)CC1` [Compound I-18, 4-Methyl-piperazine-1-carboxylic acid (3-{4-chloro-2-[3-(5-cyano-pyridin-2-yl)-ureido]-phenoxy}-propyl)-amide], the inhibition at 1 µM is not below 50% and the inhibition at 10 µM is not below 50%.

`Cc1cnc(NC(=O)Nc2cc(C(=O)N3CCN(C)CC3)ccc2OCCCNC(=O)c2ccc(Cl)cc2)cn1` [Compound I-20, 4-Chloro-N-(3-{4-(4-methyl-piperazine-1-carbonyl)-2-[3-(5-methyl-pyrazin-2-yl)-ureido]-phenoxy}-propyl)-benzamide]: the inhibition at 10 µM was not below 50%.

Take `CN(C)CC(=O)NCCCOc1ccc(Cl)cc1NC(=O)Nc1ccc(C#N)cn1` [Compound I-39, N-(3-{4-Chloro-2-[3-(5-cyano-pyridin-2-yl)-ureido]-phenoxy}-propyl)-2-dimethylamino-acetamide]: the inhibition at 1 µM is not below 50% and the inhibition at 10 µM was not below 50%.

Regarding `N#Cc1ccc(NC(=O)Nc2cc(Cl)ccc2OCCCC(=O)N2CCOCC2)nc1` [Compound I-110, 1-[5-Chloro-2-(4-morpholin-4-yl-4-oxo-butoxy)-phenyl]-3-(5-cyano-pyridin-2-yl)-urea], the inhibition at 10 µM is not below 50%.

With `Cc1cnc(NC(=O)Nc2cc(Cl)ccc2OCCCNC(=O)C(N)c2ccc(Cl)cc2)cn1` (centres unmarked) [Compound I-111, 2-Amino-N-(3-{4-chloro-2-[3-(5-methyl-pyrazin-2-yl)-ureido]-phenoxy}-propyl)-2-(4-chloro-phenyl)-acetamide], the inhibition at 1 µM was not below 50% and the inhibition at 10 µM was not below 50%.
